PMC8632988, “Inhibition of SYK and cSrc kinases can protect bone and cartilage in preclinical models of osteoarthritis and rheumatoid arthritis” (Scientific Reports, 2021)
Several values for one entry are separate records, joined by “and”; a condition that tells them apart may be missing. Identical values can stand only once. Like-named read-outs stand apart in the source and are kept apart here.

Key:
Assay in all cases: Kinase selectivity profile assay
Type in all cases: biochemical
[1] = molecular target: T1, MUSK (Homo sapiens, UniProt O15146); conditions: 500 nM; relative to DMSO; read-out: Residual enzymatic activity
T1 construct: purchased Reaction Biology Corporation
T1 sequence (O15146 24-869): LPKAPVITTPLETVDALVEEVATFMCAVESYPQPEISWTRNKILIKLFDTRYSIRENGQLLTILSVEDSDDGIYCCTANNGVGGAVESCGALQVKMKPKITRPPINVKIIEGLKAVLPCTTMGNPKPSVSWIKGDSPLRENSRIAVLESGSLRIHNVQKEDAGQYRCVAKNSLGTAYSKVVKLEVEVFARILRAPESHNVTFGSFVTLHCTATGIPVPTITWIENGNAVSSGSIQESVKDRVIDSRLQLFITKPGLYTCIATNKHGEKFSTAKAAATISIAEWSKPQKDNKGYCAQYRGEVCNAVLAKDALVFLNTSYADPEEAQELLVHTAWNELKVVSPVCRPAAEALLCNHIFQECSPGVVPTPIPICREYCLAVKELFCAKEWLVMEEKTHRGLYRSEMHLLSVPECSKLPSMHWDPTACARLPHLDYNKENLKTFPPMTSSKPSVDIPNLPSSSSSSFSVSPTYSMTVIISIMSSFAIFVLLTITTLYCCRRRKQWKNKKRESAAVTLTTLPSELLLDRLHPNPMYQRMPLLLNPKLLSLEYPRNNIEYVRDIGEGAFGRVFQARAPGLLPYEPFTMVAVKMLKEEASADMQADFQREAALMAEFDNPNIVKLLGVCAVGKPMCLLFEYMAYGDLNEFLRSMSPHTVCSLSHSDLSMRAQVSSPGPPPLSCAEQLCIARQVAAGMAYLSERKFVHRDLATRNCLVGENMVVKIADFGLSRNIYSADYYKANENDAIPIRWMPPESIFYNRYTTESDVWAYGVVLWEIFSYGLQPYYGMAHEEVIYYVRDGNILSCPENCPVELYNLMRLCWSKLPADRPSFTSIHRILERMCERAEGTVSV
Outline: (§1)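 Radiometric kinase assay run by a standard protocol. Unbound phosphate was removed by washing filters in phosphoric acid, and product radioactivity gave percent remaining kinase activity versus DMSO vehicle reactions. Run in duplicate.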

[2] = molecular target: T2, Aurora B (Homo sapiens, UniProt Q96GD4); conditions: 500 nM; relative to DMSO; read-out: Residual enzymatic activity
T2 construct: purchased Reaction Biology Corporation
Outline: as §1

[3] = molecular target: T3, BRSK2 (Homo sapiens, UniProt Q8IWQ3); conditions: 500 nM; relative to DMSO; read-out: Residual enzymatic activity
T3 construct: purchased Reaction Biology Corporation
Outline: as §1

[4] = molecular target: T4, FAK/PTK2 (Homo sapiens, UniProt Q05397); conditions: 500 nM; relative to DMSO; read-out: Residual enzymatic activity
T4 construct: purchased Reaction Biology Corporation
Outline: as §1

[5] = molecular target: T5, PDGFRa (Homo sapiens, UniProt P16234); conditions: for remaining activity at 0.5 µM: 500 nM, relative to DMSO, read-out: Residual enzymatic activity
T5 construct: purchased Reaction Biology Corporation (Malvern, PA, USA)
T5 sequence (P16234 24-1089): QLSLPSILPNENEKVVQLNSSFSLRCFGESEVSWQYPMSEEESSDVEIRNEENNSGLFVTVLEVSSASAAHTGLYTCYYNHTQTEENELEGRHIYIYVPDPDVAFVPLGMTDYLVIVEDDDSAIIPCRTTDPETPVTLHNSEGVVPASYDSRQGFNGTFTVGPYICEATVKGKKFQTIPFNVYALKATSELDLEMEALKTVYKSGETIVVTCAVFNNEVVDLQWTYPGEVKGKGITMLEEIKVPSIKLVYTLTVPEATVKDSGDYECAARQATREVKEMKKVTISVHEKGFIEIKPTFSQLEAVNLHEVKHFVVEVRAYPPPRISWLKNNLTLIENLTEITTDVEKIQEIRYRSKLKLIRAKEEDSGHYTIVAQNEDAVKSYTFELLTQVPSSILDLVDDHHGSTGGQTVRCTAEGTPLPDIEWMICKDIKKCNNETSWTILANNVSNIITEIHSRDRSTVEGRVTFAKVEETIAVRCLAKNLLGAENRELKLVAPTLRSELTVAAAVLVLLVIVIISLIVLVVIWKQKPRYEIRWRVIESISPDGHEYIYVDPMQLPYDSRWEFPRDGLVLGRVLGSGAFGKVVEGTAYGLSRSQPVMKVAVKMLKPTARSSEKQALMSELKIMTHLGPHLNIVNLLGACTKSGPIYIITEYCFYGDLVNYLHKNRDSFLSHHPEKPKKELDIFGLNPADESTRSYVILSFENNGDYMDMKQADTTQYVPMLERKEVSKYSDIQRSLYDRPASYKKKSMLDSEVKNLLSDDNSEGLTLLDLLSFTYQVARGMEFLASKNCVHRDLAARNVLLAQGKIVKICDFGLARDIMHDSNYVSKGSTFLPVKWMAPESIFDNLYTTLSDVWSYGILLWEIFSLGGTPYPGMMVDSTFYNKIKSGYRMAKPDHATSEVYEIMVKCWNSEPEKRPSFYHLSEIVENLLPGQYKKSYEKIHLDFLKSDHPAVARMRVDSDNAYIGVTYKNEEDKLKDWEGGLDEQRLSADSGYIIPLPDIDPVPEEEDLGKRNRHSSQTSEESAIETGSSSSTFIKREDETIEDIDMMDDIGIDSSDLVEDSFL
Outline: as §1

[6] = molecular target: T6, PKAcg (Homo sapiens, UniProt P22612); conditions: 500 nM; relative to DMSO; read-out: Residual enzymatic activity
T6 construct: purchased Reaction Biology Corporation
Outline: as §1

[7] = molecular target: T7, STK32C/YANK3 (Homo sapiens, UniProt Q86UX6); conditions: 500 nM; relative to DMSO; read-out: Residual enzymatic activity
T7 construct: purchased Reaction Biology Corporation
Outline: as §1

[8] = molecular target: T8, ALK6/BMPR1B (Homo sapiens, UniProt O00238); conditions: 500 nM; relative to DMSO; read-out: Residual enzymatic activity
T8 construct: purchased Reaction Biology Corporation
Outline: as §1

[9] = molecular target: T9, STK22D/TSSK1 (Homo sapiens, UniProt Q9BXA7); conditions: for remaining activity at 0.5 µM: 500 nM, relative to DMSO, read-out: Residual enzymatic activity
T9 construct: purchased Reaction Biology Corporation (Malvern, PA, USA)
T9 sequence (Q9BXA7 1-367): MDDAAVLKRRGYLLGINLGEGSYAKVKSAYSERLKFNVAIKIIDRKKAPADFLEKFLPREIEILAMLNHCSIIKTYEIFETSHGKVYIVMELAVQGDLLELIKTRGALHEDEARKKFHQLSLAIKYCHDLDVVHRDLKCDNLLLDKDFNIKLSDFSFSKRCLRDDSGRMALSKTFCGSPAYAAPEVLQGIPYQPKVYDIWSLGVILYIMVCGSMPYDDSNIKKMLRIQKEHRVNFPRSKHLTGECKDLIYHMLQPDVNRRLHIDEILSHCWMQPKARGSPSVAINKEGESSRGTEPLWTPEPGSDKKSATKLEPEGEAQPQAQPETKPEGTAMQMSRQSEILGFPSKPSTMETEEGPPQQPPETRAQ
Outline: as §1

[10] = molecular target: T10, PIM2 (Homo sapiens, UniProt Q9P1W9); conditions: 500 nM; relative to DMSO; read-out: Residual enzymatic activity
T10 construct: purchased Reaction Biology Corporation
Outline: as §1

[11] = molecular target: T11, ALK2/ACVR1 (Homo sapiens, UniProt Q04771); conditions: 500 nM; relative to DMSO; read-out: Residual enzymatic activity
T11 construct: purchased Reaction Biology Corporation
Outline: as §1

[12] = molecular target: T12, GRK4 (Homo sapiens, UniProt P32298); conditions: 500 nM; relative to DMSO; read-out: Residual enzymatic activity
T12 construct: purchased Reaction Biology Corporation
Outline: as §1

[13] = molecular target: T13, BTK (Homo sapiens, UniProt Q06187); conditions: 500 nM; relative to DMSO; read-out: Residual enzymatic activity
T13 construct: purchased Reaction Biology Corporation
Outline: as §1

[14] = molecular target: T14, PKCeta (Homo sapiens, UniProt P24723); conditions: 500 nM; relative to DMSO; read-out: Residual enzymatic activity
T14 construct: purchased Reaction Biology Corporation
T14 sequence (P24723 whole entry): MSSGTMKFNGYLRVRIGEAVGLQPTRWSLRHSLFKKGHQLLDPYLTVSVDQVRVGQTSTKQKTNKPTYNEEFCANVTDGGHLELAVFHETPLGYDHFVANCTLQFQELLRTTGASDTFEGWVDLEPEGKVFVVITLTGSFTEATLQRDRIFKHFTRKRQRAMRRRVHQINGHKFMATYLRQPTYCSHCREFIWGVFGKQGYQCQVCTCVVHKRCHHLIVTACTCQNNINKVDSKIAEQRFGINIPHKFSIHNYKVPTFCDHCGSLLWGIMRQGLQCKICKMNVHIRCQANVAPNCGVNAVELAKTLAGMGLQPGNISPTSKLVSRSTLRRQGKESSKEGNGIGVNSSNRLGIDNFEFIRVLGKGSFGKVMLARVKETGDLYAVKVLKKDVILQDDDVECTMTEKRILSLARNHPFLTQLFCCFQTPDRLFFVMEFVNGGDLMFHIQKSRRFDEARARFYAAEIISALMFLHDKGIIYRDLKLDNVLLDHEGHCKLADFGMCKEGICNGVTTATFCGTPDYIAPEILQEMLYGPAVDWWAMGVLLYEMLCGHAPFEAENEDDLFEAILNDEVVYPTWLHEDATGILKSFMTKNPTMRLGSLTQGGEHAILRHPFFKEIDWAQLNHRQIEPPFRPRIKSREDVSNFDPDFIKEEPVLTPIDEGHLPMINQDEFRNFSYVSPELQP
Outline: as §1

[15] = molecular target: T15, LYN (Homo sapiens, UniProt P07948); conditions: for remaining activity at 0.5 µM: 500 nM, relative to DMSO, read-out: Residual enzymatic activity
T15 construct: purchased Reaction Biology Corporation (assay service)
T15 sequence (P07948 whole entry): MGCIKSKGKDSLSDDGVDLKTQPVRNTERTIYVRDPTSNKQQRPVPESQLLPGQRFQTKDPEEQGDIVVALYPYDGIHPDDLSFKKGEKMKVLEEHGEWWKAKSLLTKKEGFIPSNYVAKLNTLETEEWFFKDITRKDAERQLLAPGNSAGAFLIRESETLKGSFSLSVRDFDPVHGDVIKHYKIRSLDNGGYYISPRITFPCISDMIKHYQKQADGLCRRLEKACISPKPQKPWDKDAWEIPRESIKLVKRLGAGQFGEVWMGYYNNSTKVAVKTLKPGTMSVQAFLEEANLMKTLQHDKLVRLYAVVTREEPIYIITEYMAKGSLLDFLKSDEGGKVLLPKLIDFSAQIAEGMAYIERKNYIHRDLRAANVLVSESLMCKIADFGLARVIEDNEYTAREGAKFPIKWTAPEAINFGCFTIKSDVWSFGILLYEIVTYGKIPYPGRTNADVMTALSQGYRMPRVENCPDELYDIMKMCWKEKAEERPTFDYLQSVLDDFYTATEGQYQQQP
Outline: as §1

[16] = molecular target: T16, PLK2 (Homo sapiens, UniProt Q9NYY3); conditions: 500 nM; relative to DMSO; read-out: Residual enzymatic activity
T16 construct: purchased Reaction Biology Corporation
Outline: as §1

[17] = molecular target: T17, MLCK/MYLK (Homo sapiens, UniProt Q15746); conditions: 500 nM; relative to DMSO; read-out: Residual enzymatic activity
T17 construct: purchased Reaction Biology Corporation
Outline: as §1

[18] = molecular target: T18, DMPK2 (Homo sapiens, UniProt Q6DT37); conditions: read-out: Residual enzymatic activity
T18 construct: purchased Reaction Biology Corporation
Outline: as §1

[19] = molecular target: T19, LATS2 (Homo sapiens, UniProt Q9NRM7); conditions: 500 nM; relative to DMSO; read-out: Residual enzymatic activity
T19 construct: purchased Reaction Biology Corporation
Outline: as §1

[20] = molecular target: T20, CLK2 (Homo sapiens, UniProt P49760); conditions: 500 nM; relative to DMSO; read-out: Residual enzymatic activity
T20 construct: purchased Reaction Biology Corporation
Outline: as §1

[21] = molecular target: T21, DYRK1/DYRK1A (Homo sapiens, UniProt Q13627); conditions: 500 nM; relative to DMSO; read-out: Residual enzymatic activity
T21 construct: purchased Reaction Biology Corporation
Outline: as §1

[22] = molecular target: T22, SGK2 (Homo sapiens, UniProt Q9HBY8); conditions: 500 nM; relative to DMSO; read-out: Residual enzymatic activity
T22 construct: purchased Reaction Biology Corporation
Outline: as §1

[23] = molecular target: T23, GSK3a (Homo sapiens, UniProt P49840); conditions: 500 nM; relative to DMSO; read-out: Residual enzymatic activity
T23 construct: purchased Reaction Biology Corporation
Outline: as §1

[24] = molecular target: T24, RSK1 (Homo sapiens, UniProt Q15418); conditions: 500 nM; relative to DMSO; read-out: Residual enzymatic activity
T24 construct: purchased Reaction Biology Corporation
Outline: as §1

[25] = molecular target: T25, PLK1 (Homo sapiens, UniProt P53350); conditions: 500 nM; relative to DMSO; read-out: Residual enzymatic activity
T25 construct: purchased Reaction Biology Corporation
T25 sequence (P53350 whole entry): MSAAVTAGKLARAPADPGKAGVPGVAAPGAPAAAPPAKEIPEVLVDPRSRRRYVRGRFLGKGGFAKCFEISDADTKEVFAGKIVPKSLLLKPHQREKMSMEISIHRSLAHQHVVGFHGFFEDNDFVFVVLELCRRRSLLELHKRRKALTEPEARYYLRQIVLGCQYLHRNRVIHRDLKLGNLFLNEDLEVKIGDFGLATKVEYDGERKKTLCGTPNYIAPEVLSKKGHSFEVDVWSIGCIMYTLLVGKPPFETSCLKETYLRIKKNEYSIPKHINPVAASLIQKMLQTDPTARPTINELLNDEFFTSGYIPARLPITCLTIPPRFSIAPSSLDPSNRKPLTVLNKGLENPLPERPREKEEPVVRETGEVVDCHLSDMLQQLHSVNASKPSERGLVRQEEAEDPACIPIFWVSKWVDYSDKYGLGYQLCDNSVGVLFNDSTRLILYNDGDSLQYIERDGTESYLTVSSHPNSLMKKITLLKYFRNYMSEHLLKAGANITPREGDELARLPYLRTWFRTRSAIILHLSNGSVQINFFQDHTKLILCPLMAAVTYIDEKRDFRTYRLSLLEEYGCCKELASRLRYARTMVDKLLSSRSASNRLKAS
Outline: as §1

[26] = molecular target: T26, CSK (Homo sapiens, UniProt P41240); conditions: for remaining activity at 0.5 µM: 500 nM, relative to DMSO, read-out: Residual enzymatic activity
T26 construct: purchased Reaction Biology Corporation (assay service)
T26 sequence (P41240 whole entry): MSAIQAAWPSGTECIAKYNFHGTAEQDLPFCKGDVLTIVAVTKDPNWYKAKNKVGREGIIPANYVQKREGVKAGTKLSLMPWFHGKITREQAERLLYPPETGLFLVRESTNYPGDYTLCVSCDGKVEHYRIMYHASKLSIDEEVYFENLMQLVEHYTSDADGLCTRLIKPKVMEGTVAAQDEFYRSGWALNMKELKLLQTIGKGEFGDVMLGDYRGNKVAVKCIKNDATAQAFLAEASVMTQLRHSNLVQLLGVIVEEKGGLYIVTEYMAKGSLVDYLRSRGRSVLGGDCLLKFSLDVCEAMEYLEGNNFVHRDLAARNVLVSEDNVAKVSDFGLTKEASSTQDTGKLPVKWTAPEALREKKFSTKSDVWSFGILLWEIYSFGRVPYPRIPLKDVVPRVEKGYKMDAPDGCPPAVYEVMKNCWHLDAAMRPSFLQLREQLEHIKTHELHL
Outline: as §1

[27] = molecular target: T27, AKT1 (Homo sapiens, UniProt P31749); conditions: 500 nM; relative to DMSO; read-out: Residual enzymatic activity
T27 construct: purchased Reaction Biology Corporation
Outline: as §1

[28] = molecular target: T28, CK1d (Homo sapiens, UniProt P48730); conditions: 500 nM; relative to DMSO; read-out: Residual enzymatic activity
T28 construct: purchased Reaction Biology Corporation
Outline: as §1

[29] = molecular target: T29, TGFBR2 (Homo sapiens, UniProt P37173); conditions: 500 nM; relative to DMSO; read-out: Residual enzymatic activity
T29 construct: purchased Reaction Biology Corporation
Outline: as §1

[30] = molecular target: T30, MKK4 (Homo sapiens, UniProt P45985); conditions: 500 nM; relative to DMSO; read-out: Residual enzymatic activity
T30 construct: purchased Reaction Biology Corporation
Outline: as §1

[31] = molecular target: T31, SIK1 (Homo sapiens, UniProt P57059); conditions: for remaining activity at 0.5 µM: 500 nM, relative to DMSO, read-out: Residual enzymatic activity
T31 construct: purchased Reaction Biology Corporation (Malvern, PA, USA)
T31 sequence (P57059 whole entry): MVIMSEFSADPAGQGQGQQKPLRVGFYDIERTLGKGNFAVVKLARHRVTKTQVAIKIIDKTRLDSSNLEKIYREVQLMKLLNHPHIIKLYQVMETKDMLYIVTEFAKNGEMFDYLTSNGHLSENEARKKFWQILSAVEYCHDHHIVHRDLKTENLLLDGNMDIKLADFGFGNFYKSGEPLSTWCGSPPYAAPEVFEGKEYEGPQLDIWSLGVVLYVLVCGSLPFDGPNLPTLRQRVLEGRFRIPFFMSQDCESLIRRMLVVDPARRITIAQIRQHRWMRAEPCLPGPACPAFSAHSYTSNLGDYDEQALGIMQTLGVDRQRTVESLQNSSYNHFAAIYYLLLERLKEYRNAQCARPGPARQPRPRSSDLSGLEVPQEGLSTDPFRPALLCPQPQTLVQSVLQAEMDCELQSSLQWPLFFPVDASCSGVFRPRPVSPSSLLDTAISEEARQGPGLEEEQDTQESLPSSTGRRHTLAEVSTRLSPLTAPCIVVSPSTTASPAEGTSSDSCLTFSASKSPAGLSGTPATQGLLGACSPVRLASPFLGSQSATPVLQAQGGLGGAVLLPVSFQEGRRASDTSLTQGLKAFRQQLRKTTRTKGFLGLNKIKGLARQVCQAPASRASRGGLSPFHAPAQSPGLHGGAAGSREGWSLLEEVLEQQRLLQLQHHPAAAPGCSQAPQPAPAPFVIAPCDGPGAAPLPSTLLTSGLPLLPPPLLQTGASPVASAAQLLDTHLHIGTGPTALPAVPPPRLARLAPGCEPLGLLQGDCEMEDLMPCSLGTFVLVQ
Outline: as §1

[32] = 10-dose mode, threefold serial dilution from 10 μM

| SMILES | remaining activity at 0.5 µM [1] [%] | remaining activity at 0.5 µM [2] [%] | remaining activity at 0.5 µM [3] [%] | remaining activity at 0.5 µM [4] [%] | remaining activity at 0.5 µM [5] [%] | remaining activity at 0.5 µM [6] [%] | remaining activity at 0.5 µM [7] [%] | remaining activity at 0.5 µM [8] [%] | remaining activity at 0.5 µM [9] [%] | remaining activity at 0.5 µM [10] [%] | remaining activity at 0.5 µM [11] [%] | remaining activity at 0.5 µM [12] [%] | remaining activity at 0.5 µM [13] [%] | remaining activity at 0.5 µM [14] [%] | remaining activity at 0.5 µM [15] [%] | remaining activity at 0.5 µM [16] [%] | remaining activity at 0.5 µM [17] [%] | remaining activity at 0.5 µM [19] [%] | remaining activity at 0.5 µM [20] [%] | remaining activity at 0.5 µM [21] [%] | further results |
| --- | --- | --- | --- | --- | --- | --- | --- | --- | --- | --- | --- | --- | --- | --- | --- | --- | --- | --- | --- | --- | --- |
| COc1cc(Nc2ncnc(Nc3cc4c(cn3)NC(=O)C(C)(C)O4)n2)cc(OC)c1OC [MT-SYK-03] | 79.9 | 78.6 | 92.5 | 87.4 | 46.4 | 106 | 115 | 143 | 49.9 | 97.2 | 241 | 99.7 | 51.3 | 109 | 12.5 | 81.6 | 96.2 | 85.3 | 94.5 | 90.5 | IC50 [5, 32]: 35.9 nM; IC50 [9, 32]: 198 nM; IC50 [15, 32]: 8.8 nM; inhibition at 0.5 µM ([15]; read-out: Inhibition at 500 nM): > 90%; remaining activity at 0.5 µM ([18]; 500 nM, relative to DMSO): 96.4%; remaining activity at 0.5 µM [22]: 110%; remaining activity at 0.5 µM [23]: 74.2%; remaining activity at 0.5 µM [24]: 105%; remaining activity at 0.5 µM [25]: 93.4%; remaining activity at 0.5 µM [26]: 34.8%; IC50 [26, 32]: 238 nM; remaining activity at 0.5 µM [27]: 101%; remaining activity at 0.5 µM [28]: 86.5%; remaining activity at 0.5 µM [29]: 116%; remaining activity at 0.5 µM [30]: 99.8%; remaining activity at 0.5 µM [31]: 10.1%; IC50 [31, 32]: 36 nM and 35.9 nM |
| COc1cc(Nc2ncc(F)c(Nc3ccc4c(n3)NC(=O)C(C)(C)O4)n2)cc(OC)c1OC [R406, reference compound] | 62.1 | 40.2 | 84.2 | 29.7 | 10.5 | 91.7 | 102 | 145 | 9.6 | 95.6 | 135 | 96.8 | 28.8 | 96.6 | 5.7 | 19.4 | 90.5 | 51.2 | 81.6 | 53 | remaining activity at 0.5 µM [18]: 57.5%; remaining activity at 0.5 µM [22]: 106%; remaining activity at 0.5 µM [23]: 27.5%; remaining activity at 0.5 µM [24]: 66.9%; remaining activity at 0.5 µM [25]: 60.4%; remaining activity at 0.5 µM [26]: 20.6%; remaining activity at 0.5 µM [27]: 99.4%; remaining activity at 0.5 µM [28]: 78.7%; remaining activity at 0.5 µM [29]: 97.1%; remaining activity at 0.5 µM [30]: 102%; remaining activity at 0.5 µM [31]: 7.2% |
